Results as given in ChEMBL document CHEMBL1201862, “PubChem BioAssay data set” (2004).
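Values below derive from 48-hour exposures of cells grown in 96-well plates, with endpoints linearly interpolated between the two concentrations bracketing the appropriate inhibition level. The concentration for 50% growth inhibition is given as GI50.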 Activity calls are given as the source filed them. Rule as the data show it: active = GI50 up to about 1.1 µM and inactive = higher. Numbered stars: 1 amine (or outer) side, 2 acyl side, 3 side chain; on linkers, the order of the positions; unused ones are H or OH. Bridge positions count the residues as written; N and C are the ends. Square brackets hold non-standard residues; d marks the D form. Peptide text beside a SMILES is read from it. * marks the point of attachment. ξ: configuration not given here. X33 = O=C(C(CCCCNO[*:3])N[*:1])[*:2]; Fmoc = O=C(OCC1c2ccccc2-c2ccccc21)*; ξW = NC(Cc1c[nH]c2ccccc12)C(=O)O; ξP = O=C(O)C1CCCN1

Legend:
Test in all cases: growth of human tumour cells (NCI), 48 h
DMS-114 = system: DMS-114
DLD-1 = system: DLD-1
HOP-18 = system: HOP-18
LXFL 529 = system: LXFL 529
BT-549 = system: BT-549
KM-20L2 = system: KM-20L2
DMS-273 = system: DMS-273
XF498 = system: XF498

Row | SMILES | GI50 (DMS-114) | GI50 (DLD-1) | GI50 (BT-549) | other results
1 | COc1ccc(/C=N/N=C(\N)NO)c(Cl)c1O | 5.9 µM (inactive) | 25.5 µM (inactive) |  | GI50 (HOP-18): 2.22 µM (inactive); GI50 (LXFL 529): 2.89 µM (inactive)
2 | Cn1c(C(C#N)c2cc(Cl)ncn2)nc2ccccc21 (centres undefined) |  |  | > 100 µM (inactive) | 
3 | Cc1ccccc1NC(=O)/C=N/O | > 100 µM (inactive) | > 100 µM (inactive) |  | GI50 (HOP-18): > 100 µM (inactive); GI50 (LXFL 529): > 100 µM (inactive); GI50 (KM-20L2): 16.9 µM (inactive); GI50 (DMS-273): > 100 µM (inactive)
4 | COc1ccc(/C(Cl)=C(\C=O)c2ccc(OC)c(OC)c2)cc1OC | > 90.2 µM (inactive) | > 92 µM (inactive) | > 100 µM (inactive) | GI50 (XF498): > 88.9 µM (inactive); GI50 (HOP-18): > 98.2 µM (inactive); GI50 (KM-20L2): > 100 µM (inactive); GI50 (DMS-273): > 90.4 µM (inactive)
5 | Nn1c(SCC(=O)NCc2ccccc2)nc2ccccc2c1=O |  |  | 73.3 µM (inactive) | 
6 | COC(c1ccccc1)C(c1ccccc1)N1CCOCC1 (centres undefined) | > 100 µM (inactive) | > 100 µM (inactive) |  | GI50 (XF498): 53 µM (inactive); GI50 (HOP-18): > 100 µM (inactive); GI50 (LXFL 529): > 100 µM (inactive); GI50 (KM-20L2): > 100 µM (inactive); GI50 (DMS-273): > 100 µM (inactive)
7 | O=C1C(Cl)C(c2ccccc2O)N1n1cnc2ccccc2c1=O (centres undefined) | 20 µM (inactive) | 67 µM (inactive) |  | GI50 (XF498): 5.32 µM (inactive); GI50 (HOP-18): 37 µM (inactive); GI50 (LXFL 529): 61.1 µM (inactive); GI50 (KM-20L2): 78.3 µM (inactive); GI50 (DMS-273): 63.4 µM (inactive)
8 | COC(=O)c1c(OC(C)=O)ccc2c1c1c(n2C)C(=O)c2ccccc2C1=O |  |  | 17 µM (inactive) | 
9 | O=P(O)(O)c1ccc(-c2ccc(I)cc2)cc1 |  |  | > 100 µM (inactive) | 
10 | Cc1ccc(/C=C2\CNC/C(=C\c3ccc(C)cc3)C2=O)cc1 | 1.86 µM (inactive) | 0.34 µM (active) | 2.24 µM (inactive) | GI50 (XF498): 2.59 µM (inactive); GI50 (HOP-18): > 10 µM (inactive); GI50 (LXFL 529): 1.28 µM (inactive); GI50 (KM-20L2): 1.32 µM (inactive); GI50 (DMS-273): 1.24 µM (inactive)
11 | O=C1Nc2cccc3cc(NCC(O)CCl)cc1c23 (centres undefined) |  |  | 39.9 µM (inactive) | 
12 | O=C(N/C(=C\c1ccc([N+](=O)[O-])cc1)c1nc2cc(Cl)ccc2[nH]1)c1ccccc1 | 16.3 µM (inactive) | 13.5 µM (inactive) |  | GI50 (XF498): 15.3 µM (inactive); GI50 (LXFL 529): 17.1 µM (inactive); GI50 (KM-20L2): 16.3 µM (inactive)
13 | C/C=C/[C@H]1O[C@@](O)([C@@H](C)[C@H](O)[C@H](C)[C@H]2OC(=O)/C(OC)=C/C(C)=C/[C@@H](C)[C@@H](O)[C@@H](CC)[C@@H](O)[C@H](C)C/C(C)=C/C=C/[C@@H]2OC)C[C@H](OC2CC(O)C(O)C(C)O2)[C@@H]1C (some centres undefined) |  |  | < 0.0075 µM (active) | 
14 | C=CCN(C(C)=O)c1cc(OCc2ccccc2)c2c(c1)c(C)cn2S(=O)(=O)c1ccccc1 |  |  | 11.4 µM (inactive) | 
15 | CCOP(=O)(OCC)[C@H]1OC(C)(C)O[C@@H]1CO |  |  | > 100 µM (inactive) | 
16 | CCO/C=N/C1=C(C#N)C(c2ccc(OC)c(OC)c2)c2c(-c3ccccc3)nn(-c3ccccc3)c2O1 (centres undefined) |  |  | 8.13 µM (inactive) | 

Row | SMILES | GI50 (DMS-114) | GI50 (DLD-1) | GI50 (BT-549) | other results
17 | Cc1ccc(NC(=O)NC23CC4CC(CC(F)(C4)C2)C3)cc1 | 46.6 µM (inactive) | > 100 µM (inactive) |  | GI50 (XF498): > 100 µM (inactive); GI50 (LXFL 529): 88.7 µM (inactive); GI50 (KM-20L2): 45.9 µM (inactive); GI50 (DMS-273): 86.3 µM (inactive)
18 | CS/C(=N\c1ccccc1Cl)NC(=O)c1ccc(Br)cc1 | > 100 µM (inactive) | > 100 µM (inactive) |  | GI50 (XF498): 46.2 µM (inactive); GI50 (HOP-18): 25.5 µM (inactive); GI50 (LXFL 529): 79.4 µM (inactive); GI50 (KM-20L2): > 100 µM (inactive)
19 | COc1cc(/C=C2\C[C@H]3[C@@H]4CCc5cc(OCCN6CCCC6)ccc5[C@H]4CC[C@]3(C)C2=O)cc(OC)c1OC |  |  | 15.5 µM (inactive) | 
20 | COc1ccc(C2CC3(c4ccccc4)ON=C(c4ccccc4)N3c3ccccc3S2)cc1 (centres undefined) |  |  | > 100 µM (inactive) | 
21 | C=CCc1[nH]c2c(OCc3ccccc3)cc(N(CC=C)C(C)=O)cc2c1C |  |  | 15.8 µM (inactive) | 
22 | O=C(Nn1c(-c2ccccc2)nc2ccccc2c1=O)c1ccccn1 |  |  | > 100 µM (inactive) | 
23 | CN(NC(=O)c1ccco1)C1=NCCCCN1 |  |  | > 100 µM (inactive) | 
24 | O=C(O)CN1C=C(C(=O)c2cc3ccccc3n2S(=O)(=O)c2ccccc2)CCC1 |  |  | 83.2 µM (inactive) | 
25 | O=C1NC2CCCCC2N=C1CC(=O)c1ccc(Br)cc1 (centres undefined) |  |  | 14.6 µM (inactive) | 
26 | CC(C)C1=CC23CCC4C(C)(C(=O)O)CCCC4(C)C2CC1C1C(=O)N(c2ccc(C(=O)O)cc2)C(=O)C13 (centres undefined) |  |  | > 100 µM (inactive) | 
27 | C/C=C1/CN2CCC3(O)c4ccccc4N4C=C(C(=O)OC)C1CC2C43O (centres undefined) |  |  | > 100 µM (inactive) | 
28 | CC12CCC(=O)C[C@H]1CCC(OC=O)C2Br (some centres undefined) | > 100 µM (inactive) | > 100 µM (inactive) |  | GI50 (XF498): > 100 µM (inactive); GI50 (HOP-18): > 100 µM (inactive); GI50 (LXFL 529): > 100 µM (inactive); GI50 (KM-20L2): > 100 µM (inactive); GI50 (DMS-273): > 100 µM (inactive)
29 | O=C(NNC(=O)c1ccccc1O)c1ccccc1O |  |  | 0.0426 µM (active) | 
30 | CCC[C@H]1C(=O)N=C(N)N1C(=O)OCc1ccccc1 |  |  | > 100 µM (inactive) | 
31 | NC(=O)CNC(=O)C1CCCN1C(=O)C1CCCCNOC(=O)CC[C@@H](NC(=O)OCC2c3ccccc3-c3ccccc32)C(=O)NC(Cc2c[nH]c3ccccc23)C(=O)N1 (some centres undefined) (Fmoc-[dE][ξW][X33][ξP]G-NH2; ester 1-3) |  |  | > 100 µM (inactive) | 
